These results are taken from PubChem BioAssay (NCI).

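How tested: cells in 96-well plates exposed to compound for 48 hours at five concentrations. The concentration for 50% growth inhibition is given as GI50. At the TGI there is no net growth.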

Holding throughout (assay): DTP human tumour cell line panel, 48 h
Assay [1] deals with SR leukemia.
In assay [2] the test system is A498 renal.
In assay [3] the test system is SF-268 CNS.
The test system of assay [4] is SNB-19 CNS.
In assay [5] the test system is OVCAR-5 ovarian.
In assay [6] the test system is NCI-H226 lung.
Assay [7] concerns U251 CNS.
In assay [8] the test system is HCT-116 colon.
In assay [9] the test system is MALME-3M melanoma.
For assay [10], the system named is HOP-62 NSCLC.

As to `CCN(CC)c1ccc(N=C2C=C(C(=O)Nc3ccc(S(C)(=O)=O)cc3)C(=O)c3ccccc32)c(C)c1`, the GI50 was 2.08 µM in [1]; more than 100 µM in assay [2]; 2.4 µM in [3]; 4.39 µM in [4]; more than 100 µM in [5]; more than 100 µM in assay [6]. For the same compound, the GI50 in assay [7] was 4.69 µM; in assay [8], 12.6 µM; in assay [9], 30.9 µM; in assay [10] it was 91.7 µM. Further, the TGI in [1], in [2], in [3], in assay [4], in assay [5] and in [6] was more than 100 µM throughout. Further, the TGI in assay [7], in assay [8], in [9] and in assay [10] was more than 100 µM throughout.

Take `COc1ccc(Nc2ncccc2/C=C/C(=O)c2cc(OC)c(OC)c(OC)c2)cc1`: the GI50 in assay [1] is 0.464 µM; in assay [2], 3.19 µM; in assay [3] it was 1.77 µM; in [4] it was 2.14 µM; in [5], 1.97 µM; in assay [6] it was 1.37 µM. For the same compound, the GI50 in [7] is 1.27 µM; in [8] it was 1.02 µM; in [9], 1.4 µM; in [10], 1.78 µM. Also, the TGI came to 3.98 µM in assay [1]; 11.7 µM in assay [2]; 4.08 µM in assay [3]; 6.33 µM in assay [4]; 3.83 µM in assay [5]; 2.81 µM in [6]. The TGI in assay [7] turned out to be 2.52 µM; in [8], 2.28 µM; in assay [9] it was 2.87 µM; in assay [10], 3.75 µM.

As to `Cc1cc(=O)c2cc(N=Cc3ccc([N+](=O)[O-])o3)ccc2o1`, the TGI in assay [1], in [2], in assay [3], in assay [4], in assay [5] and in assay [6] was more than 100 µM each time. For the same compound, the TGI in assay [7], in assay [8], in [9] and in assay [10] was more than 100 µM each time.

Regarding `C=C(C)C(=O)OC1CC2(C)OC2CC(OC(C)=O)/C(C)=C/C2OC(=O)C(=C)C21` (stereo not given), the TGI was determined as 4.47 µM in assay [1]; 26.4 µM in [2]; 15.3 µM in [3]; 28.7 µM in [4]; 17.5 µM in [5]; 48 µM in [6]. The concentration for total growth inhibition (TGI) is 25.1 µM in [7], 3.61 µM in assay [8], 3.23 µM in assay [9] and 26.5 µM in assay [10].

As to `CCN(CC)CC(=O)/C=C/c1ccc(C)cc1`, the TGI in assay [1] was 78.8 µM; in assay [2] it was more than 100 µM; in [3] it was 54.8 µM; in [4], more than 100 µM; in assay [5], more than 100 µM; in assay [6], 53.8 µM. Further, the total growth inhibition concentration (TGI) in assay [7] is 30.1 µM; in assay [8], 32.4 µM; in [9] it was 41.2 µM; in assay [10], more than 100 µM.

`COc1ccccc1/C=C1\CCC(CNc2ccc(Cl)cc2)C1=O` (stereo not given): the TGI came to 26.5 µM in assay [1]; 27 µM in [2]; 24.2 µM in assay [3]; 25 µM in [4]; 23.6 µM in assay [5]; 28.3 µM in assay [6]. Moreover, the TGI in [7] was 23.2 µM; in assay [8], 19.1 µM; in assay [9], 28.4 µM; in assay [10] it was 22.9 µM.

`Cc1ccccc1S(=O)(=O)N1[C@H](c2ccc(Cl)cc2)C(C(=O)N[C@@H](Cc2ccccc2)C(N)=O)=C[C@@H]1C(C)(C)C`: the GI50 in [1] is 3.91 µM; in [2] it was 7.3 µM; in [3], 6.56 µM; in assay [4], 6.07 µM; in assay [5] it was 5.62 µM; in assay [6], 7.05 µM. In addition, the GI50 was 5.28 µM in assay [7], 2.9 µM in [8], 10.2 µM in assay [9] and 7.75 µM in assay [10]. For the same compound, the TGI came out at 15.4 µM in [1]; 14.4 µM in [2]; 16.4 µM in assay [3]; 17.3 µM in [4]; 11.9 µM in assay [5]; 16.1 µM in assay [6]. Also, the TGI in [7] stood at 12.1 µM; in assay [8] it was 15.1 µM; in [9] it was 20.1 µM; in assay [10] it was 15.1 µM.

For `COc1ccc(C2=CC(c3cc(OC)c(OC)c(OC)c3)NC(=O)N2)cc1OC` (stereo not given), the GI50 in [1] was 2.11 µM; in [2], 1.83 µM; in assay [3] it was 3.46 µM; in assay [4], 4.73 µM; in assay [5], 2.28 µM; in assay [6], 8.4 µM. Besides, the GI50 in [7] is 3.82 µM; in assay [8], 3.17 µM; in [9], 5.06 µM; in assay [10], 3.99 µM. In addition, the TGI in [1] was 10.4 µM; in assay [2] it was 8.32 µM; in assay [3], 14.5 µM; in [4], 17 µM; in [5] it was 6.42 µM; in [6], more than 100 µM. Also, the total growth inhibition concentration (TGI) in [7] worked out at 14.1 µM; in [8], 11.1 µM; in [9], 21.1 µM; in assay [10] it was 19.8 µM.

For the compound `O=C(Nc1ccc(Cl)cc1)c1cc2c(cc1O)[nH]c1ccccc12`, the GI50 was 3.44 µM in [1]; 2.56 µM in [2]; 3.92 µM in assay [3]; 3.43 µM in assay [4]; 3.72 µM in assay [5]; 2.52 µM in assay [6]. Further, the GI50 in [7] was 3.18 µM; in assay [8] it was 2.95 µM; in assay [9], 2.45 µM; in assay [10], 2.8 µM. For the same compound, the TGI in [1] was 31.6 µM; in [2], 7.29 µM; in assay [3], 14.7 µM; in assay [4], 30.6 µM; in assay [5] it was 16.2 µM; in assay [6], 9.46 µM. In addition, the TGI turned out to be 11.3 µM in [7], 10.3 µM in [8], 5.76 µM in [9] and 6.6 µM in assay [10].

Broadly, the GI50 is the concentration giving 50% growth inhibition. A word on the TGI: it is the concentration giving total growth inhibition. Low readings indicate greater sensitivity of the cells, high ones lower sensitivity of the cells.
